From patent publication US5213974A, “Fermentation process for preparing antibiotics mureidomycins A, B, C and D” (priority 1986, dated 1993)
≈ marks a conversion by molar mass, not a printed value.

What was measured:
[1] = tested on: gram-negative bacteria, particularly bacteria of the genus Pseudomonas; test: Antibacterial activity, summary of the MIC data; format: cell-based
Description: (§1) The minimal inhibitory concentrations (MIC) of mureidomycins A, B, C and D against various gram-positive and gram-negative bacteria were determined by the two-fold agar dilution method, using a Mueller-Hinton agar medium (produced by Difco).
From the above data, mureidomycins A, B, C and D are active against gram-negative bacteria, particularly against bacteria of the genus Pseudomonas.

[2] = tested on: mice; test: Toxicity in mice, intravenous; format: in vivo
[3] = Solubility in water and organic solvents; format: physicochemical
[4] = tested on: Pseudomonas aeruginosa SANK 75775; test: MIC, two-fold agar dilution method, Mueller-Hinton agar; format: cell-based
Description: as §1

[5] = tested on: Staphylococcus aureus FDA 209P JC-1; test: as above; format: cell-based
Description: as §1

[6] = tested on: Pseudomonas aeruginosa ATCC 13388; test: as above; format: cell-based
Description: as §1

[7] = tested on: Klebsiella pneumoniae PCI 602; test: as above; format: cell-based
Description: as §1

[8] = tested on: Pseudomonas aeruginosa SANK 70579; test: as above; format: cell-based
Description: as §1

[9] = tested on: Esherichia coli NIHJ JC-2; test: as above; format: cell-based
Description: as §1

[10] = tested on: Pseudomonas aeruginosa NCTC 10490; test: as above; format: cell-based
Description: as §1

[11] = tested on: Pseudomonas aeruginosa SANK 75175; test: as above; format: cell-based
Description: as §1

[12] = tested on: Pseudomonas aeruginosa NRRLB 1000; test: as above; format: cell-based
Description: as §1

[13] = tested on: Pseudomonas acidovorans SANK 72782; test: as above; format: cell-based
Description: as §1

[14] = tested on: Pseudomonas aeruginosa SANK 73279; test: as above; format: cell-based
Description: as §1

[15] = tested on: Serratia marcescens SANK 73060; test: as above; format: cell-based
Description: as §1

[16] = tested on: Pseudomonas aeruginosa SANK 73375; test: as above; format: cell-based
Description: as §1

[17] = tested on: Proteus mirabilis SANK 70461; test: as above; format: cell-based
Description: as §1

[18] = tested on: Pseudomonas aeruginosa SANK 70970; test: as above; format: cell-based
Description: as §1

[19] = tested on: Pseudomonas aeruginosa SANK 73379; test: as above; format: cell-based
Description: as §1

[20] = tested on: Pseudomonas aeruginosa SANK 70479; test: as above; format: cell-based
Description: as §1

[21] = tested on: Pseudomonas aeruginosa SANK 71873; test: as above; format: cell-based
Description: as §1

Compound	activity against gram-negative bacteria [1]	Solubility ([3]; acetone)	Solubility ([3]; benzene)	Solubility ([3]; chloroform)	Solubility ([3]; ethyl acetate)	Solubility ([3]; methanol)	Solubility ([3]; water)	MIC [4] [mg/L]	MIC [5] [mg/L]	MIC [6] [mg/L]	MIC [7] [mg/L]	MIC [8] [mg/L]	MIC [9] [mg/L]	MIC [10] [mg/L]	MIC [11] [mg/L]	MIC [12] [mg/L]	MIC [13] [mg/L]	MIC [14] [mg/L]	MIC [15] [mg/L]	MIC [16] [mg/L]	also measured
CSCC[C@H](NC(=O)NC(Cc1cccc(O)c1)C(=O)O)C(=O)N[C@@H](C(=O)NC=C1CC(O)C(n2ccc(=O)[nH]c2=O)O1)C(C)N(C)C(=O)[C@@H](N)Cc1cccc(O)c1 (some centres unmarked) [Mureidomycin A, mureidomycin A]	active	slightly soluble	insoluble	insoluble	insoluble	Soluble	Soluble	6.25 (≈ 7.43 µM)	200 (≈ 238 µM)	25 (≈ 29.7 µM)	25 (≈ 29.7 µM)	< 0.1	> 200	0.4 (≈ 0.476 µM)	25 (≈ 29.7 µM)	25 (≈ 29.7 µM)	> 200	12.5 (≈ 14.9 µM)	> 200	12.5 (≈ 14.9 µM)	toxicity ([2]; mice, 400 mg/kg intravenously): No toxicity was observed; MIC [17]: > 200 mg/L; MIC [18]: 12.5 mg/L (≈ 14.9 µM); MIC [19]: 100 mg/L (≈ 119 µM); MIC [20]: 6.25 mg/L (≈ 7.43 µM); MIC [21]: 6.25 mg/L (≈ 7.43 µM)
CSCC[C@H](NC(=O)NC(Cc1cccc(O)c1)C(=O)O)C(=O)N[C@@H](C(=O)N/C=C1\CC(O)C(N2CCC(=O)NC2=O)O1)C(C)N(C)C(=O)[C@@H](N)Cc1cccc(O)c1 (some centres unmarked) [Mureidomycin B, mureidomycin B]	active	slightly soluble	insoluble	insoluble	insoluble	Soluble	Soluble	200 (≈ 237 µM)	> 200	50 (≈ 59.3 µM)	25 (≈ 29.7 µM)	0.2 (≈ 0.237 µM)	> 200	0.8 (≈ 0.949 µM)	50 (≈ 59.3 µM)	50 (≈ 59.3 µM)	200 (≈ 237 µM)	25 (≈ 29.7 µM)	> 200	25 (≈ 29.7 µM)	toxicity ([2]; mice, 400 mg/kg intravenously): No toxicity was observed; MIC [17]: > 200 mg/L; MIC [18]: 25 mg/L (≈ 29.7 µM); MIC [19]: 200 mg/L (≈ 237 µM); MIC [20]: 12.5 mg/L (≈ 14.8 µM); MIC [21]: 25 mg/L (≈ 29.7 µM)
CSCC[C@H](NC(=O)NC(Cc1cccc(O)c1)C(=O)O)C(=O)N[C@@H](C(=O)NC=C1CC(O)C(n2ccc(=O)[nH]c2=O)O1)C(C)N(C)C(=O)[C@H](Cc1cccc(O)c1)NC(=O)CN (some centres unmarked) [Mureidomycin C, mureidomycin C]	active	slightly soluble	insoluble	insoluble	insoluble	Soluble	Soluble	1.56 (≈ 1.74 µM)	> 200	3.13 (≈ 3.49 µM)	12.5 (≈ 13.9 µM)	< 0.1	> 200	0.4 (≈ 0.445 µM)	3.13 (≈ 3.49 µM)	3.13 (≈ 3.49 µM)	> 200	1.56 (≈ 1.74 µM)	> 200	3.13 (≈ 3.49 µM)	toxicity ([2]; mice, 400 mg/kg intravenously): No toxicity was observed; MIC [17]: > 200 mg/L; MIC [18]: 1.56 mg/L (≈ 1.74 µM); MIC [19]: 6.25 mg/L (≈ 6.96 µM); MIC [20]: 1.56 mg/L (≈ 1.74 µM); MIC [21]: 1.56 mg/L (≈ 1.74 µM)
mureidomycin D	active	slightly soluble	insoluble	insoluble	insoluble	Soluble	Soluble	6.25	> 200	6.25	25	0.2	> 200	1.56	12.5	6.25	100	6.25	> 200	6.25	toxicity ([2]; mouse, in vivo, iv, 400 mg/kg): No toxicity was observed; MIC [17]: > 200 mg/L; MIC [18]: 3.13 mg/L; MIC [19]: 50 mg/L; MIC [20]: 6.25 mg/L; MIC [21]: 6.25 mg/L
